One experiment concerns the target α2 receptor. As to the kind of experiment: Affinity to α2 receptor. Also noted: species or system rat. The settings on record: read-out: Affinity to α2 receptor (MIC50; mole concentration for 50% inhibition of binding); 0.7 nM ^3H-rauwolscine.
The next experiment deals with 5-HT1 receptor. As to the kind of experiment: Affinity to 5-HT1 receptor. Also noted: species or system rat. The settings on record: read-out: Affinity to 5-HT1 receptor (MIC50; mole concentration for 50% inhibition of binding); 2 nM ^3H-5-HT.
Experiment [1] has as its system monoamine release from synaptosomes. As to the kind of experiment: Releasing effect of monoamines in synaptosomes of the rat brain. The following applies: compound 5×10^-5 M with tyramine 10^-6 M (FIG. 9). The protocol:
Synaptosomes were prepared as follows. Fresh striatum (for determination of dopamine) and fresh forebrain (for determination of noradrenaline and serotonin) were removed from listar rats of 8 weeks old (NIPPON S. L. C.). Ten times volumes of ice-cold 0.35 M sucrose (pH 7.4) were added in the brain tissue and homogenized using glass homogenizer with teflon pestle which was revolted by motors. Thereafter the homogenate was centrifuged at 900×g for 10 min at 4° C. and the supernatant was recentrifuged at 11,500×g for 20 min. The pellet was resuspeded in ice-cold buffer. Final concentration of synaptosomes was prepared to 0.6 mg protein/ml. Protein concentration was determined by method described in Journal of Biological Chemistry, 193, 265-275 (1951) and the bovine serum albumin was used as an authentic standard. The release of monoamine from synaptosomes was determined by the following procedure based on the method described in Journal of Pharmacology and Experimental Therapeutics, 241, 27-33 (1987). The solution of 0.6 mg/ml of synaptosomes was preincubated for 5 min at 35° C. under the oxygenated (95% O2 and 5% CO2) condition. Thereafter 25 nM ^3 H-monoamines were added in synaptosomal solution and the solutions were incubated for 5 min at 35° C. […]

Structures are written as SMILES.

On to `CCCNC(CCC)Cc1c[nH]c2ccccc12.Cl` (stereo not drawn) [Compound No. 20, 1-(Indol-3-yl)-2-propylaminopentane Hydrochloride], for which the IC50 amounted to 0.9 µM at α2 receptor and 7 µM on 5-HT1 receptor. As for `CCCNC(CCC)Cc1ccc2c(c1)OCO2.Cl` (stereo not drawn) [Compound No. 27, 1-(1,3-Benzodioxol-5-yl)-2-propylaminopentane Hydrochloride], the “antagonism against the effect of tyramine” value in experiment [1] is reported as “Tyramine antagonistic property”.
